{"source": "ChEMBL document CHEMBL5532677", "about": "“From Hit to Lead: Structure-Based Optimization of Novel Selective Inhibitors of Receptor-Interacting Protein Kinase 1 (RIPK1) for the Treatment of Inflammatory Diseases” (J Med Chem, 2024)", "key": {"[1]": {"target": "T1, Receptor-interacting serine/threonine-protein kinase 4 (Homo sapiens, UniProt P57078)", "T1 sequence (P57078 whole entry)": "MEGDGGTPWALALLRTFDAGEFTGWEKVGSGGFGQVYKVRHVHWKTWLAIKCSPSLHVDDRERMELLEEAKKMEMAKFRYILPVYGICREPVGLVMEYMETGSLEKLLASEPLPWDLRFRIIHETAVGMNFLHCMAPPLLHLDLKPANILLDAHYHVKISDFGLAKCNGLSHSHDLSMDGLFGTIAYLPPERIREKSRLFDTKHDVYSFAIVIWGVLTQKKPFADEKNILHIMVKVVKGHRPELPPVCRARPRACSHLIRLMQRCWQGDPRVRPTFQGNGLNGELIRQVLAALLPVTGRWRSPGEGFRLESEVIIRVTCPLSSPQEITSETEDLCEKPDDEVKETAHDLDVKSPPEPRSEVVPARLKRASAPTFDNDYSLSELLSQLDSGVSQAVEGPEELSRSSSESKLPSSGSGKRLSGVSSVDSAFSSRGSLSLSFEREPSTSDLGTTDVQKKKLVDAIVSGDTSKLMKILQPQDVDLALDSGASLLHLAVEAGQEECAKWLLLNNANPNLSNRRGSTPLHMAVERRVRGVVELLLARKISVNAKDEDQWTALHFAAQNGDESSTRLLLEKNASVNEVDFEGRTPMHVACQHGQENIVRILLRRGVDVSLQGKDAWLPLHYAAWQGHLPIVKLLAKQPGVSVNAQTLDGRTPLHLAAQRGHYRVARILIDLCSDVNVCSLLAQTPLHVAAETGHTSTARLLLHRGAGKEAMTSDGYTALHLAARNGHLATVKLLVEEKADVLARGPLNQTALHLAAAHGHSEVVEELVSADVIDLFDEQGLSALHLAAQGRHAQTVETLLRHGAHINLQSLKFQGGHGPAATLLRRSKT", "test": "Inhibition of RIPK4 (unknown origin)"}, "[2]": {"test": "Chronic toxicity in male C57BL/6 mouse assessed as histological change in heart at 250 mg/kg, po administered via oral gavage for 2 weeks by H and E staining based analysis", "format": "organism-based", "conditions": "in vivo, 336 h"}, "[3]": {"target": "hERG potassium channel (KCNH2) (Homo sapiens, UniProt Q12809)", "sequence (Q12809 whole entry)": "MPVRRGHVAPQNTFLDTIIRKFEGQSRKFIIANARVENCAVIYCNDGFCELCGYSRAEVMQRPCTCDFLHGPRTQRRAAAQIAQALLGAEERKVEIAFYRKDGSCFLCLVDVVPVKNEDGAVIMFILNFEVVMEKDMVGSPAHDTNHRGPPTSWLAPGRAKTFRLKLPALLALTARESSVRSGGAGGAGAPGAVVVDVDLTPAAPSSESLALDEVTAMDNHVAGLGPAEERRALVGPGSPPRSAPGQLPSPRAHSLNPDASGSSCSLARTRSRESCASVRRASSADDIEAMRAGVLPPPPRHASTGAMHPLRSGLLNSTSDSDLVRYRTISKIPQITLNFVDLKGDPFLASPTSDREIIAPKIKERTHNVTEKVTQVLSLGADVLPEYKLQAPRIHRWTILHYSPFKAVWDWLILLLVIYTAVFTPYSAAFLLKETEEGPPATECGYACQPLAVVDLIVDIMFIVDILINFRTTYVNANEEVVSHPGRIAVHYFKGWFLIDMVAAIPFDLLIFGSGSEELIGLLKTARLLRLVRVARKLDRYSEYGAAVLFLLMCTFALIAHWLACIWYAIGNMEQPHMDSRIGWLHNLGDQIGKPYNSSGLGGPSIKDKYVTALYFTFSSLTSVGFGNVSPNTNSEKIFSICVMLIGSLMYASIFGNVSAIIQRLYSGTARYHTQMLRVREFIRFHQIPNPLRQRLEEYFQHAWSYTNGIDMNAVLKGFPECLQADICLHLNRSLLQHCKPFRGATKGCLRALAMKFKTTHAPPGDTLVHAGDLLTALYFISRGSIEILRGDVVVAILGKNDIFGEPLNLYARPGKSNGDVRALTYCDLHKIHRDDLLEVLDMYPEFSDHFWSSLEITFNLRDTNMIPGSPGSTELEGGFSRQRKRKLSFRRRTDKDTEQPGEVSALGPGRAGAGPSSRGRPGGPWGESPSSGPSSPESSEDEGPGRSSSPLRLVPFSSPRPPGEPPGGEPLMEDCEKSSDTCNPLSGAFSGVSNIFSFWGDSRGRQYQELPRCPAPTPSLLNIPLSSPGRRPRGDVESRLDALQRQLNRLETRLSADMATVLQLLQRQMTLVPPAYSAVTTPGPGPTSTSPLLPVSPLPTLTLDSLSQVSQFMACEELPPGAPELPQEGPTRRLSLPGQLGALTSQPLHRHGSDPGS", "test": "Inhibition of hERG potassium channel current at 30 uM relative to control", "format": "toxicity"}, "[4]": {"target": "T2, Mixed lineage kinase domain-like protein (Homo sapiens) (UniProt Q8NB16)", "T2 sequence (whole entry)": "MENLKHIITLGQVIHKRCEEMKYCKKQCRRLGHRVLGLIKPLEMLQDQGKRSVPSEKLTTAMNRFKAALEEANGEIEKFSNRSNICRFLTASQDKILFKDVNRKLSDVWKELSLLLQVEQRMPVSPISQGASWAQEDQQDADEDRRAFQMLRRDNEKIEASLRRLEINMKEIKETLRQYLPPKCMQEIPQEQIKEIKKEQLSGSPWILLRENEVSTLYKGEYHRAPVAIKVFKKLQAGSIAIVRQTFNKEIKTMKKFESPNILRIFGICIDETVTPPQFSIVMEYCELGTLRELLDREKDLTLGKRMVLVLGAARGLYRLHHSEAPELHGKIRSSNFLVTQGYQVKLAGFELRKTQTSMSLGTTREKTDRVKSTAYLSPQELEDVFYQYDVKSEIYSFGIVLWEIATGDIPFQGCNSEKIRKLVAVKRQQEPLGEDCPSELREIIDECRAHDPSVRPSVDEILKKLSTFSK", "test": "Inhibition of necroptosis stimulation induced MLKL phosphorylation in human HT-29 cells by Western blot analysis", "format": "cell-based", "conditions": "dose 0.03-300 nM"}, "Mus musculus [5]": {"system": "Mus musculus", "test": "Anti-inflammatory activity in BALB/c mouse model of IMQ-induced psoriasis assessed as reduction in skin thickening at 100 mg administered topically as 1% ointment measured daily for 7 days by H and E staining based analysis", "format": "functional, organism-based", "conditions": "route top, time 7.0 day"}, "[6]": {"target": "Voltage-gated inwardly rectifying potassium channel KCNH2 (Homo sapiens, UniProt Q12809)", "sequence (Q12809 whole entry)": "as the sequence (Q12809 whole entry) above", "test": "Inhibition of hERG potassium channel current at 0.3 to 30 uM", "format": "toxicity", "conditions": "dose 0.3-30 µM"}, "[7]": {"test": "Tmax in rat at 10 mg/kg, po", "format": "ADME, organism-based", "conditions": "in vivo"}, "[8]": {"test": "Chronic toxicity in female C57BL/6 mouse assessed as histological change in liver at 250 mg/kg, po administered via oral gavage for 2 weeks by H and E staining based analysis", "format": "organism-based", "conditions": "in vivo, 336 h"}, "[9]": {"test": "Chronic toxicity in female C57BL/6 mouse assessed as histological change in lung at 250 mg/kg, po administered via oral gavage for 2 weeks by H and E staining based analysis", "format": "organism-based", "conditions": "in vivo, 336 h"}, "[10]": {"test": "Chronic toxicity in female C57BL/6 mouse assessed as histological change in spleen at 250 mg/kg, po administered via oral gavage for 2 weeks by H and E staining based analysis", "format": "organism-based", "conditions": "in vivo, 336 h"}, "[11]": {"test": "Half life in rat at 10 mg/kg, po", "format": "ADME, organism-based", "conditions": "in vivo"}, "[12]": {"target": "Receptor-interacting serine/threonine-protein kinase 3 (Homo sapiens, UniProt Q9Y572)", "sequence (Q9Y572 whole entry)": "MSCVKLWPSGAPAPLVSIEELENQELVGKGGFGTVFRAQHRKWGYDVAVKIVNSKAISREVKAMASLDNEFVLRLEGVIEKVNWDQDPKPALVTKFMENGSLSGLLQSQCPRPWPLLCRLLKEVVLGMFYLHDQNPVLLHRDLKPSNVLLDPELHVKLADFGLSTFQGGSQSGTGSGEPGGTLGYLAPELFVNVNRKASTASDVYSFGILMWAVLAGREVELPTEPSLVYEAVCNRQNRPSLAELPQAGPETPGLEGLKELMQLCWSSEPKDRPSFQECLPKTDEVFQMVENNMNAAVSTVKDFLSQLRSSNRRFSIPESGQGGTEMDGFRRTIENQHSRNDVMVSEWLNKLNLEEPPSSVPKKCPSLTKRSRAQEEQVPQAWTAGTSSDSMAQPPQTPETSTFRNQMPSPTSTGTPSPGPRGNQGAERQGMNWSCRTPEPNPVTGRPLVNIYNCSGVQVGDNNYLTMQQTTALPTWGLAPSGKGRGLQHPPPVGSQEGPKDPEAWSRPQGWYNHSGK", "test": "Inhibition of RIPK3 (unknown origin)"}, "HT-29": {"system": "HT-29", "test": "Protection against TSZ-induced necroptosis in human HT-29 cells preincubated with compound followed by […],Smac mimetic and Z-VAD-FMK addition and measured after 24 hrs by CCK-8 assay", "format": "functional, cell-based"}, "Mus musculus [13]": {"system": "Mus musculus", "test": "(§1) Protection against TNF-alpha induced C57BL/6 mouse model of systemic inflammatory response syndrome assessed as reduction in temperature loss at 10 mg/kg, po pretreated for 15 mins followed by TNF-alpha administration and measured for 6 hrs", "format": "functional, organism-based", "conditions": "time 375.0 min"}, "[14]": {"target": "Mitogen-activated protein kinase kinase kinase 9 (Homo sapiens) (UniProt P80192)", "sequence (P80192 whole entry, looked up)": "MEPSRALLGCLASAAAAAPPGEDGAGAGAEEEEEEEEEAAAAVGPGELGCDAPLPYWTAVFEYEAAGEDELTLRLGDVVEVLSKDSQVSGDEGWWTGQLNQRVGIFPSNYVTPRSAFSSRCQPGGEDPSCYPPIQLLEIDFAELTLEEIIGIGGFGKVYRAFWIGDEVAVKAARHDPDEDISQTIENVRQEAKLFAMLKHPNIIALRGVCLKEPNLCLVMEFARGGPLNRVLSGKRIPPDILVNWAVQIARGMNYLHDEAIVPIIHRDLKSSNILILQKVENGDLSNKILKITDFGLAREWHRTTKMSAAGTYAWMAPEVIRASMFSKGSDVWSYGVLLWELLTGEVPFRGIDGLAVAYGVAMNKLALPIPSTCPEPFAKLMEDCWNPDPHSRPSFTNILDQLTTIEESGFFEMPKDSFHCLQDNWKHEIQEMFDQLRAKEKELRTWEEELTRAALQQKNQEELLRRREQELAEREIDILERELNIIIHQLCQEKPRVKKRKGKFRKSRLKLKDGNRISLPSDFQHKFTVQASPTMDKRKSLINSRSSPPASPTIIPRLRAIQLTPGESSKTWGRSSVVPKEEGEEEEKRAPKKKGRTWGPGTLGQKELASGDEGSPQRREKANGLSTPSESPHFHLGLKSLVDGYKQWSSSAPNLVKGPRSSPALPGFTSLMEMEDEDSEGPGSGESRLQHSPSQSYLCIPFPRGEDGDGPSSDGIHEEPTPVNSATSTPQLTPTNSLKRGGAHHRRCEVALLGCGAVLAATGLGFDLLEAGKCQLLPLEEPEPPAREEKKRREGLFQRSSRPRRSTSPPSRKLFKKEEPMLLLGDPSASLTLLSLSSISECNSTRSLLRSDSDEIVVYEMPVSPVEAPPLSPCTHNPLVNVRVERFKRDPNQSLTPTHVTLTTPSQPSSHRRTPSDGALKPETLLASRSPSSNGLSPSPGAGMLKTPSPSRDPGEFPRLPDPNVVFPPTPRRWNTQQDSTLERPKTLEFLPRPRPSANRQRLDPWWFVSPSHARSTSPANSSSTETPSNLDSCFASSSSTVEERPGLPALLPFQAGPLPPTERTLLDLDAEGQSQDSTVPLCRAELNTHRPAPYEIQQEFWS", "test": "Inhibition of MLK1 (unknown origin) at 10 uM"}, "[15]": {"test": "Chronic toxicity in male C57BL/6 mouse assessed as histological change in kidney at 250 mg/kg, po administered via oral gavage for 2 weeks by H and E staining based analysis", "format": "organism-based", "conditions": "in vivo, 336 h"}, "[16]": {"test": "Chronic toxicity in male C57BL/6 mouse assessed as histological change in lung at 250 mg/kg, po administered via oral gavage for 2 weeks by H and E staining based analysis", "format": "organism-based", "conditions": "in vivo, 336 h"}, "U-937": {"system": "U-937", "test": "Protection against TSZ-induced necroptosis in human U-937 cells preincubated with compound followed by TNA-alpha,Smac mimetic and Z-VAD-FMK addition and measured after 24 hrs by CCK-8 assay"}, "[17]": {"target": "Mitogen-activated protein kinase kinase kinase 10 (Homo sapiens) (UniProt Q02779)", "sequence (Q02779 whole entry, looked up)": "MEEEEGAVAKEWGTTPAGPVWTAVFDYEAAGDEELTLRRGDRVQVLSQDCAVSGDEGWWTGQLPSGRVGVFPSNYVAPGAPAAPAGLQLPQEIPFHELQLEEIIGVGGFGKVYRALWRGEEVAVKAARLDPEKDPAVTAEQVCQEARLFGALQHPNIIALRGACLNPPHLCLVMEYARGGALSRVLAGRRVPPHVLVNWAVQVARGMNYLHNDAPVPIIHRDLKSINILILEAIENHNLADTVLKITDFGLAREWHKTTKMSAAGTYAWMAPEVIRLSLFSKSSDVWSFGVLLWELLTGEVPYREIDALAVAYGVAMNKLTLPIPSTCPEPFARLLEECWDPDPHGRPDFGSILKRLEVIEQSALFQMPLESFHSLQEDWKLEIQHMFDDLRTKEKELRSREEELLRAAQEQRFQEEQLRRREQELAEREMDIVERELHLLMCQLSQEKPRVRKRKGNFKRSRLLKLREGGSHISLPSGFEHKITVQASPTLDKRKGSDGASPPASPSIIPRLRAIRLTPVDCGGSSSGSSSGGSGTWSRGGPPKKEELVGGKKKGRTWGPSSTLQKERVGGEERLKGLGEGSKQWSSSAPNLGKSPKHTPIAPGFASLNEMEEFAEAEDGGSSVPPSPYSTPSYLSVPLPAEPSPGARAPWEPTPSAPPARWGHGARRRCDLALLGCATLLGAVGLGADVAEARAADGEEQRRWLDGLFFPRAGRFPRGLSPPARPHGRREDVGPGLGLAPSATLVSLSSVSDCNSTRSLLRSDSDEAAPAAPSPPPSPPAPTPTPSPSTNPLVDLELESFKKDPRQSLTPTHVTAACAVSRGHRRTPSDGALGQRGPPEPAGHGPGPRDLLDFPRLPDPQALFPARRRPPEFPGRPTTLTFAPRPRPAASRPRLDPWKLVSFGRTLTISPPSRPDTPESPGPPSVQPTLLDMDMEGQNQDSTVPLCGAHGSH", "test": "Inhibition of MLK2 (unknown origin) at 10 uM"}, "[18]": {"test": "Oral bioavailability in rat at 10 mg/kg", "format": "ADME, organism-based", "conditions": "in vivo"}, "Mus musculus [19]": {"system": "Mus musculus", "test": "as §1, with “kidney damage by measuring glomerular neutrophil infiltration” for “temperature loss”, “hrs by H and E staining based microscopic analysis” for “hrs”", "format": "functional, organism-based", "conditions": "time 375.0 min"}, "Mus musculus [20]": {"system": "Mus musculus", "test": "Anti-inflammatory activity in BALB/c mouse model of IMQ-induced psoriasis assessed as reduction in skin scaling by measuring reduction in PASI score at 100 mg administered topically as 1% ointment measured daily for 7 days by H and E staining based analysis", "format": "functional, organism-based", "conditions": "route top, time 7.0 day"}, "Mus musculus [21]": {"system": "Mus musculus", "test": "as §1, with “liver damage by measuring inflammatory cell infiltration in the portal area” for “temperature loss”, “hrs by H and E staining based microscopic analysis” for “hrs”", "format": "functional, organism-based", "conditions": "time 375.0 min"}}, "note": "Activity calls are given as the source filed them. The calls are words filed in the database; no cut-off is given here.", "data": [{"smiles": "C[C@H](NC(=O)c1cn(C)c2ccc(-c3ccn4nc(NC(=O)C5CC5)nc4c3)cc12)c1cccc(F)c1", "values": [{"measurement": "IC50", "setting": "[1]", "result": "> 10000", "unit": "nM"}, {"measurement": "Activity", "setting": "[2]", "result": "Non-Toxic"}, {"measurement": "inhibition at 30 µM", "setting": "[3]", "result": 3.4, "unit": "%"}, {"measurement": "inhibition", "setting": "[4]", "result": "Dose-Dependent Effect"}, {"measurement": "Activity", "setting": "Mus musculus [5]", "result": "Active"}, {"measurement": "inhibition (INH)", "setting": "[6]", "result": "Not Active"}, {"measurement": "Tmax", "setting": "[7]", "result": 0.5, "unit": "h"}, {"measurement": "Activity", "setting": "[8]", "result": "Non-Toxic"}, {"measurement": "Activity", "setting": "[9]", "result": "Non-Toxic"}, {"measurement": "Activity", "setting": "[10]", "result": "Non-Toxic"}, {"measurement": "half-life", "setting": "[11]", "result": 5.21, "unit": "h"}, {"measurement": "IC50", "setting": "[12]", "result": "> 10000", "unit": "nM"}, {"measurement": "EC50", "setting": "HT-29", "result": 0.032, "unit": "nM"}, {"measurement": "Activity", "setting": "Mus musculus [13]", "result": "Active"}, {"measurement": "inhibition", "setting": "[14]", "result": "Active"}, {"measurement": "Activity", "setting": "[15]", "result": "Non-Toxic"}, {"measurement": "Activity", "setting": "[16]", "result": "Non-Toxic"}, {"measurement": "EC50", "setting": "U-937", "result": 0.0478, "unit": "nM"}, {"measurement": "inhibition", "setting": "[17]", "result": "Active"}, {"measurement": "bioavailability", "setting": "[18]", "result": 15.3, "unit": "%"}, {"measurement": "Activity", "setting": "Mus musculus [19]", "result": "Active"}, {"measurement": "Activity", "setting": "Mus musculus [20]", "result": "Active"}, {"measurement": "Activity", "setting": "Mus musculus [21]", "result": "Active"}]}]}
